Among the data in patent US6248739A, “Quinolinecarboxamides as antiviral agents” (Pharmacia & Upjohn Company, priority 1999, dated 2001) are IC50 values, retold here.

In test [1] the target is HSV polymerase (Human herpesvirus 1, UniProt P04293). The experiment in a line: HSV polymerase assay (Table 1). It counts as biochemical.
In test [2] the target is VZV polymerase (Varicella-zoster virus, UniProt P09252). The experiment in a line: VZV polymerase assay (Table 1). It counts as biochemical.
Test [3] has as its target T1, HCMV polymerase (Human cytomegalovirus, UniProt P08546).
T1 construct: made in house; host or cells: recombinant baculovirus-infected SF-9 insect cells
Kind of test: biochemical. Conditions: HCMV polymerase; SPA; modified assay: compounds in 100% DMSO, 4.5 mM DTT. In short, it runs like this:
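Scintillation proximity assay with baculovirus/SF-9-expressed HCMV polymerase, 90 nM ³H-dTTP and 6 nM biotinylated poly(dA)-oligo(dT) in HEPES pH 7.5/KCl/MgCl2/BSA, ±2 mM CHAPS, 25 or 37 °C, 30 min for HCMV. Modified version: compounds diluted in 100% DMSO, 4.5 mM DTT added. IC50 from linear regression.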

T1 sequence (P08546 whole entry): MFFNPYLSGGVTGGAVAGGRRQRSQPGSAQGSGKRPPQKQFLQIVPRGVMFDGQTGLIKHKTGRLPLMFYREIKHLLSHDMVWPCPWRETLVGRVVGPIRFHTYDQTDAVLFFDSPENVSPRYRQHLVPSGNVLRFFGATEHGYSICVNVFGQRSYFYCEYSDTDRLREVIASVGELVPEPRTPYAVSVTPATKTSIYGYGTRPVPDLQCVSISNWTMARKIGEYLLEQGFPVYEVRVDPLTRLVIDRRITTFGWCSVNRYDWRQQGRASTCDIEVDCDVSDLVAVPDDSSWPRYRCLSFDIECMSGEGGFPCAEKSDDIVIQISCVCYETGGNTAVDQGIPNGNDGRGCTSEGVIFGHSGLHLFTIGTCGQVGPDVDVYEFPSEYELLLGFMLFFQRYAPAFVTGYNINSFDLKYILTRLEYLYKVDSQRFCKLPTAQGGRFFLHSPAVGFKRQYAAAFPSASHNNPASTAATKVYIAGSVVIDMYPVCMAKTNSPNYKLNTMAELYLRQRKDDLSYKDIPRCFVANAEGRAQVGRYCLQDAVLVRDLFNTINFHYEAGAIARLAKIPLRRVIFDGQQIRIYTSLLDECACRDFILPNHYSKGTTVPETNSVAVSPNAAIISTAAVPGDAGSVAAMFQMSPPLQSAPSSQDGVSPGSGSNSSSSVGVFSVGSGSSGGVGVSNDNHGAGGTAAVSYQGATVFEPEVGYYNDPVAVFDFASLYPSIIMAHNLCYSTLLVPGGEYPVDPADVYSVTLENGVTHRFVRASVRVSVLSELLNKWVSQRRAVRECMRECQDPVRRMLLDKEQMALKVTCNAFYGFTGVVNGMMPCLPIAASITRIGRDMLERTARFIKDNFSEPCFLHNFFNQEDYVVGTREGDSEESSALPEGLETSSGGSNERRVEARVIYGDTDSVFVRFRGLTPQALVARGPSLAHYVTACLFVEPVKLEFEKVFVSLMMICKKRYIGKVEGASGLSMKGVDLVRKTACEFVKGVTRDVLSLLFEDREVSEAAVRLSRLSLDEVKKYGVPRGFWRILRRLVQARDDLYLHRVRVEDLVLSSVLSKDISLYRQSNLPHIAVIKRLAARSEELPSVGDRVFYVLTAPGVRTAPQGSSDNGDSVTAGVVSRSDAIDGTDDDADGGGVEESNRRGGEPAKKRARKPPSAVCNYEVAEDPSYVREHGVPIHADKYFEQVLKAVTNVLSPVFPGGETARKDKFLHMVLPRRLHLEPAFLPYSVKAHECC
HSV polymerase, sequence (P04293 whole entry): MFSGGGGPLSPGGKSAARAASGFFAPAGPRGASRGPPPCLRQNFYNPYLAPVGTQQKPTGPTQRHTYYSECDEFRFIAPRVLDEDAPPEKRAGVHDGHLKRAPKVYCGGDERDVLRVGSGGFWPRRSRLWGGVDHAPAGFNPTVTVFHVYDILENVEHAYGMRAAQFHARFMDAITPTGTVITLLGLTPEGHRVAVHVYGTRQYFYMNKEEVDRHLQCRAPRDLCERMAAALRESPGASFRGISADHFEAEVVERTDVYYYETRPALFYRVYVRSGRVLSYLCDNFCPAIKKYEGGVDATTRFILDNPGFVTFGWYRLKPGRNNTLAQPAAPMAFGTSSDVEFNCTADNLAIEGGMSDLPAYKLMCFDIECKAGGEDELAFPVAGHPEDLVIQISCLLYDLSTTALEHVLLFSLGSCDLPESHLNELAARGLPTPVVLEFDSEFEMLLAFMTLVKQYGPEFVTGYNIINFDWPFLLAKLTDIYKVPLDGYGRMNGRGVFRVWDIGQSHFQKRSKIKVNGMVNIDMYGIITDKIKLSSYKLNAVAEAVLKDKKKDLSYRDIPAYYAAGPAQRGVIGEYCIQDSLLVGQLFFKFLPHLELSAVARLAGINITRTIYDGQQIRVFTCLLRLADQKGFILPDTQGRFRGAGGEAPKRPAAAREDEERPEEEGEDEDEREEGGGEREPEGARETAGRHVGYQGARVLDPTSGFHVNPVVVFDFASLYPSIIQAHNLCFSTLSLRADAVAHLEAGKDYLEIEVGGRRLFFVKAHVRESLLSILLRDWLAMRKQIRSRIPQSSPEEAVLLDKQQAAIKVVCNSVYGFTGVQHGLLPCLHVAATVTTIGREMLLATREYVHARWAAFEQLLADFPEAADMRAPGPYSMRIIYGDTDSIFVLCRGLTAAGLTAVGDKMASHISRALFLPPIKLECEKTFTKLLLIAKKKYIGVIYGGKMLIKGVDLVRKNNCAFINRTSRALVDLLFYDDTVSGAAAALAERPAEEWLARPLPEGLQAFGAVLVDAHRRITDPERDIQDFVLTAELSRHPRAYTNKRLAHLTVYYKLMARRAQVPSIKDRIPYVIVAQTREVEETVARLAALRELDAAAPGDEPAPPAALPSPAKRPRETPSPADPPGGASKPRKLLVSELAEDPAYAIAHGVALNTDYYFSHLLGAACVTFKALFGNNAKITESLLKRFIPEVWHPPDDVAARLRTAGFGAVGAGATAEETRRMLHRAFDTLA
VZV polymerase, sequence (P09252 whole entry): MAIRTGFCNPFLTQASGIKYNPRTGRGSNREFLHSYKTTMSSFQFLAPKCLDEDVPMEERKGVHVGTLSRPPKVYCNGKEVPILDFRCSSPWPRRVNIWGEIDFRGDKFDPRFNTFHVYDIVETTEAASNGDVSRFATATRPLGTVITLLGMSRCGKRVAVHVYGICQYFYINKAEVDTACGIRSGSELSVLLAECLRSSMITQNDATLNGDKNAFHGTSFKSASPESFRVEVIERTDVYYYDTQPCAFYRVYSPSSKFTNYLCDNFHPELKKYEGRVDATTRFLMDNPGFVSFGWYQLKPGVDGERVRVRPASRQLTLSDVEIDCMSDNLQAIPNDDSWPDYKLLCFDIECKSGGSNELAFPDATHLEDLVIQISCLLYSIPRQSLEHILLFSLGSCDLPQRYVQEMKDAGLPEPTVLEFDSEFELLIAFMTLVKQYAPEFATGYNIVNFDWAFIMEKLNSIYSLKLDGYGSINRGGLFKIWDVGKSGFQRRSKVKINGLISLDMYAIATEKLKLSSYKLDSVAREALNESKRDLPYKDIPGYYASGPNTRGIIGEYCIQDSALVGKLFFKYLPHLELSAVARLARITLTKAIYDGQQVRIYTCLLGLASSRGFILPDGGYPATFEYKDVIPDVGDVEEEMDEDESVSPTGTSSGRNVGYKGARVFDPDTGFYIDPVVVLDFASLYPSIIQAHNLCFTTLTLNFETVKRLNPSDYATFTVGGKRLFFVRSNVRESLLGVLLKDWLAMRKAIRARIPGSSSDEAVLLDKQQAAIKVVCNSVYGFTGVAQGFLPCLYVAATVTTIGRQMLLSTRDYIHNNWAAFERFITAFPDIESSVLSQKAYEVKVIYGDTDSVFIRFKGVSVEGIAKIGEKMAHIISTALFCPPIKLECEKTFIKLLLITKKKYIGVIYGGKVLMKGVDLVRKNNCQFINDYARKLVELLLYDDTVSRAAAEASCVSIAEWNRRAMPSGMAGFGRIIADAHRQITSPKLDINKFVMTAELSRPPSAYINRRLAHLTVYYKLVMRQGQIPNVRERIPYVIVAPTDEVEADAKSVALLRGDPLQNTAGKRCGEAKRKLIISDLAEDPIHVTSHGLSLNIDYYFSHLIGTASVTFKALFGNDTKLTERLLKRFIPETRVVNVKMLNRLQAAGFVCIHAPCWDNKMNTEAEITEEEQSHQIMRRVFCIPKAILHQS

As a reminder, the IC50 is the concentration at which inhibition is half-maximal. Low readings indicate greater potency in that assay, high ones weaker potency in that assay. Take `CSCCCn1cc(C(=O)NCc2ccc(Cl)cc2)c(=O)c2cc(CN3CCOCC3)ccc21` [Example 61, N-(4-Chlorobenzyl)-1-[3-(methylsulfanyl)propyl]-6-(4-morpholinylmethyl)-4-oxo-1,4-dihydro-3-quinolinecarboxamide]: the IC50 in test [1] amounted to 0.9 µM; in test [2], 0.5 µM; in test [3] it was 1.1 µM.
As to `O=C(NCc1ccc(Cl)cc1)c1cn(CC#CCO)c2ccc(CN3CCOCC3)cc2c1=O` [Example 62, N-(4-Chlorobenzyl)-1-(4-hydroxy-2-butynyl)-6-(4-morpholinylmethyl)-4-oxo-1,4-dihydro-3-quinolinecarboxamide], the IC50 in test [1] amounted to 1.1 µM; in test [2], 0.61 µM; in test [3], 1.3 µM.
As to `C[S+]([O-])CCCn1cc(C(=O)NCc2ccc(Cl)cc2)c(=O)c2cc(CN3CCOCC3)ccc21` (stereo not drawn) [Example 65, N-(4-Chlorobenzyl)-1-[3-(methylsulfinyl)propyl]-6-(4-morpholinylmethyl)-4-oxo-1,4-dihydro-3-quinolinecarboxamide], the IC50 in test [1] came to 1 µM; in test [2] it was 0.63 µM; in test [3], 0.9 µM.
Taken in the same sequence, the figures for `CN(Cc1ccc2c(c1)c(=O)c(C(=O)NCc1ccc(Cl)cc1)cn2C)CC(O)c1ccc(O)cc1` (stereo not drawn) [Example 74, N-(4-Chlorobenzyl)-6-([(2-hydroxy-2-[4-hydroxyphenyl]-ethyl) [methyl]amino]methyl)-1-methyl-4-oxo-1,4-dihydro-3-quinolinecarboxamide] were 2.8 µM, 1.6 µM and 0.89 µM.
`Cn1cc(C(=O)NCc2ccc(Cl)cc2)c(=O)c2cc(CN3CC(O)C3)ccc21` [Example 75, N-(4-Chlorobenzyl)-6-[(3-hydroxy-1-azetidinyl)methyl]-1-methyl-4-oxo-1,4-dihydro-3-quinolinecarboxamide]: the figures for the IC50 in test [1], in test [2] and in test [3] were 4.4 µM, 4 µM and 3.3 µM, respectively.
Taken in the same sequence, the figures for `O=C(NCc1ccc(Cl)cc1)c1cn(CSc2ccccc2)c2ccc(CN3CCOCC3)cc2c1=O` [Example 76, N-(4-Chlorobenzyl)-6-(morpholinylmethyl)-4-oxo-1-[(phenylsulfanyl)methyl]-1,4-dihydro-3-quinolinecarboxamide] were less than 0.31 µM, less than 0.31 µM and 0.18 µM.
For `COc1cc(C(O)CN(C)Cc2ccc3c(c2)c(=O)c(C(=O)NCc2ccc(Cl)cc2)cn3C)ccc1O` (stereo not drawn) [Example 77, N-(4-Chlorobenzyl)-6-([(2-hydroxy-2-[4-hydroxy-3-methoxyphenyl]ethyl)[methyl]amino]methyl)-1-methyl-4-oxo-1,4-dihydro-3-quinolinecarboxamide] the same measures were 4.1 µM, 2.1 µM and 1.3 µM.
